Data reported in patent US20200179285A1, “BIODEGRADABLE MICROPARTICLES FOR SUSTAINED DELIVERY OF ANTI-ANGIOGENIC PEPTIDE” (The Johns Hopkins University, priority 2017, published 2020).

Test system: VEGF-induced vascular leakage
Experiment: VEGF-induced vascular leakage in rabbit eyes
Type: in vivo
Details: single injection, day 60, FIG. 4G

Question: With aflibercept as the substance, how does the “activity against VEGF-induced vascular leakage” value read?
Answer: no longer showed activity
